Test results as given in PubChem BioAssay (NCI).
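Five concentrations, 48 hours, 96-well plates. The concentration for 50% growth inhibition is given as GI50. TGI marks complete inhibition of growth.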

Columns and labels:
Test in all cases: growth of human tumour cells (NCI), 48 h; in the data active = GI50 below about 0.43 µM; inactive = the rest
SF-539 CNS = test system: SF-539 CNS
PC-3 prostate = test system: PC-3 prostate
COLO 205 colon = test system: COLO 205 colon
UACC-62 melanoma = test system: UACC-62 melanoma
SK-MEL-28 melanoma = test system: SK-MEL-28 melanoma
SR leukemia = test system: SR leukemia
LOX IMVI melanoma = test system: LOX IMVI melanoma
EKVX NSCLC = test system: EKVX NSCLC
RXF 393 renal = test system: RXF 393 renal
K-562 leukemia = test system: K-562 leukemia
MDA-MB-231 breast = test system: MDA-MB-231 breast
CAKI-1 renal = test system: CAKI-1 renal
SK-MEL-5 melanoma = test system: SK-MEL-5 melanoma
KM12 colon = test system: KM12 colon
OVCAR-4 ovarian = test system: OVCAR-4 ovarian
M14 melanoma = test system: M14 melanoma
T-47D breast = test system: T-47D breast
SW-620 colon = test system: SW-620 colon
A498 renal = test system: A498 renal
OVCAR-5 ovarian = test system: OVCAR-5 ovarian
HOP-92 NSCLC = test system: HOP-92 NSCLC
NCI-H460 lung = test system: NCI-H460 lung
SNB-19 CNS = test system: SNB-19 CNS
SF-295 CNS = test system: SF-295 CNS
SF-268 CNS = test system: SF-268 CNS
NCI-H23 lung = test system: NCI-H23 lung
OVCAR-8 ovarian = test system: OVCAR-8 ovarian
HS 578T breast = test system: HS 578T breast
SK-MEL-2 melanoma = test system: SK-MEL-2 melanoma
SK-OV-3 ovarian = test system: SK-OV-3 ovarian
BT-549 breast = test system: BT-549 breast
ACHN renal = test system: ACHN renal
MDA-MB-435 = test system: MDA-MB-435
HOP-62 NSCLC = test system: HOP-62 NSCLC
UO-31 renal = test system: UO-31 renal
IGROV1 ovarian = test system: IGROV1 ovarian
SN12C renal = test system: SN12C renal
OVCAR-3 ovarian = test system: OVCAR-3 ovarian
RPMI-8226 leukemia = test system: RPMI-8226 leukemia
UACC-257 melanoma = test system: UACC-257 melanoma
NCI-H522 lung = test system: NCI-H522 lung
A549 NSCLC = test system: A549 NSCLC
SNB-75 CNS = test system: SNB-75 CNS
U251 CNS = test system: U251 CNS
HCC-2998 colon = test system: HCC-2998 colon
HCT-116 colon = test system: HCT-116 colon
786-0 renal = test system: 786-0 renal
HCT-15 colon = test system: HCT-15 colon
DU-145 prostate = test system: DU-145 prostate
HL-60(TB) leukemia = test system: HL-60(TB) leukemia
MCF7 breast = test system: MCF7 breast
NCI/ADR-RES ovarian = test system: NCI/ADR-RES ovarian
TK-10 renal = test system: TK-10 renal

C=C(CNCc1ccccc1)c1ccc(C(=O)Nc2ccccc2N)cc1
68.1 µM: TGI (OVCAR-4 ovarian)
27.7 µM: TGI (MDA-MB-435)
34.2 µM: TGI (OVCAR-3 ovarian)
8.23 µM: TGI (NCI-H23 lung)
21.3 µM: TGI (KM12 colon)
36.9 µM: TGI (IGROV1 ovarian)
8.88 µM: TGI (LOX IMVI melanoma)
14.8 µM: TGI (SN12C renal)
24.1 µM: TGI (RXF 393 renal)
54.5 µM: TGI (MDA-MB-231 breast)
18.8 µM: TGI (NCI/ADR-RES ovarian)
55.2 µM: TGI (SF-539 CNS)
18.2 µM: TGI (UO-31 renal)
84.3 µM: TGI (ACHN renal)
21.7 µM: TGI (TK-10 renal)
22.8 µM: TGI (SK-OV-3 ovarian)
32.5 µM: TGI (CAKI-1 renal)
6.01 µM: TGI (NCI-H522 lung)
40.1 µM: TGI (OVCAR-5 ovarian)
> 100 µM: TGI (PC-3 prostate) | TGI (SK-MEL-28 melanoma) | TGI (SR leukemia) | TGI (EKVX NSCLC) | TGI (K-562 leukemia) | TGI (M14 melanoma) | TGI (T-47D breast) | TGI (SW-620 colon) | TGI (NCI-H460 lung) | TGI (OVCAR-8 ovarian) | TGI (HS 578T breast) | TGI (SK-MEL-2 melanoma) | TGI (BT-549 breast) | TGI (HOP-62 NSCLC) | TGI (RPMI-8226 leukemia) | TGI (A549 NSCLC) | TGI (U251 CNS) | TGI (HCT-116 colon) | TGI (786-0 renal) | TGI (HCT-15 colon) | TGI (DU-145 prostate) | TGI (HL-60(TB) leukemia) | TGI (MCF7 breast)
7.83 µM: TGI (A498 renal)
25.3 µM: TGI (UACC-62 melanoma)
93 µM: TGI (SNB-75 CNS)
78.5 µM: TGI (SNB-19 CNS)
5.4 µM: TGI (HCC-2998 colon)
38.5 µM: TGI (COLO 205 colon)
inactive: GI50 (SF-539 CNS) 7.63 µM | GI50 (PC-3 prostate) 18.5 µM | GI50 (COLO 205 colon) 4.9 µM | GI50 (UACC-62 melanoma) 3.76 µM | GI50 (SK-MEL-28 melanoma) 11.7 µM | GI50 (SR leukemia) 3.54 µM | GI50 (LOX IMVI melanoma) 2.45 µM | GI50 (EKVX NSCLC) 32.5 µM | GI50 (RXF 393 renal) 1.87 µM | GI50 (K-562 leukemia) 2.58 µM | GI50 (MDA-MB-231 breast) 13.2 µM | GI50 (CAKI-1 renal) 5.35 µM | GI50 (SK-MEL-5 melanoma) 4.66 µM | GI50 (KM12 colon) 4.05 µM | GI50 (OVCAR-4 ovarian) 11.7 µM | GI50 (M14 melanoma) 29.8 µM | GI50 (T-47D breast) 1.59 µM | GI50 (SW-620 colon) 8.5 µM | GI50 (A498 renal) 1.06 µM | GI50 (OVCAR-5 ovarian) 14.4 µM | GI50 (HOP-92 NSCLC) 15.1 µM | GI50 (NCI-H460 lung) > 100 µM | GI50 (SNB-19 CNS) 16.4 µM | GI50 (SF-295 CNS) 7.28 µM | GI50 (SF-268 CNS) 7.43 µM | GI50 (NCI-H23 lung) 2.37 µM | GI50 (OVCAR-8 ovarian) 2.17 µM | GI50 (HS 578T breast) 15.2 µM | GI50 (SK-MEL-2 melanoma) 5.49 µM | GI50 (SK-OV-3 ovarian) 4.22 µM | GI50 (BT-549 breast) 15.4 µM | GI50 (ACHN renal) 9.79 µM | GI50 (MDA-MB-435) 5.24 µM | GI50 (HOP-62 NSCLC) 4.57 µM | GI50 (UO-31 renal) 3.64 µM | GI50 (IGROV1 ovarian) 3.21 µM | GI50 (SN12C renal) 0.583 µM | GI50 (OVCAR-3 ovarian) 7.31 µM | GI50 (RPMI-8226 leukemia) 3.08 µM | GI50 (UACC-257 melanoma) 1.54 µM | GI50 (NCI-H522 lung) 1.78 µM | GI50 (A549 NSCLC) 7.34 µM | GI50 (SNB-75 CNS) 38.2 µM | GI50 (U251 CNS) 9.86 µM | GI50 (HCC-2998 colon) 2.22 µM | GI50 (HCT-116 colon) 15 µM | GI50 (786-0 renal) 4.44 µM | GI50 (HCT-15 colon) 36.5 µM | GI50 (DU-145 prostate) 5.05 µM | GI50 (HL-60(TB) leukemia) 1.2 µM | GI50 (MCF7 breast) 41.1 µM | GI50 (NCI/ADR-RES ovarian) 3.21 µM | GI50 (TK-10 renal) 4.68 µM
37 µM: TGI (SF-295 CNS)
55.9 µM: TGI (HOP-92 NSCLC)
45.6 µM: TGI (SF-268 CNS)
15.5 µM: TGI (UACC-257 melanoma)
17.4 µM: TGI (SK-MEL-5 melanoma)
